Activity calls are given as the source filed them. The rule behind the calls is not given here.
What was measured:
HL-60 = experiment: cells; conditions: Homo sapiens, HL-60, 72 h
Description: Antiproliferative activity against human HL-60 cells incubated for 3 days by alamar blue assay

PC-3 = experiment: cells; conditions: Homo sapiens, PC-3, 72 h
Description: Antiproliferative activity against human PC-3 cells incubated for 3 days by alamar blue assay

LN-18 = experiment: cells; conditions: Homo sapiens, LN-18, 72 h
Description: Antiproliferative activity against human LN-18 cells incubated for 3 days by alamar blue assay

in vitro = conditions: human, PrEC cells
Description: Cytotoxicity against human PrEC cells incubated for 3 days by alamar blue assay

[1] = biological target: T1, Lysine-specific histone demethylase 1A (Homo sapiens, UniProt O60341); experiment: Drug metabolism assessed as LSD1 (unknown origin) mediated entinostat release; assay type: ADME
[2] = biological target: T1, Lysine-specific histone demethylase 1A
Description: Inhibition of human recombinant LSD1 using H3K4me2 peptide substrate preincubated for 15 mins followed by substrate addition and measured after 30 mins by fluorescence based assay

[3] = biological target: T1, Lysine-specific histone demethylase 1A; experiment: Potency index, ratio of PCPA IC50 to test compound IC50 for inhibition of human recombinant LSD1
[4] = biological target: T1, Lysine-specific histone demethylase 1A; experiment: Drug metabolism assessed as LSD1 (unknown origin) mediated entinostat release incubated for 24 hrs by HPLC analysis; assay type: ADME
[5] = biological target: T1, Lysine-specific histone demethylase 1A; experiment: Inhibition of LSD1 in human PC-3 cells assessed as increase in H3K4me2 level incubated for 24 hrs by Western blotting analysis; assay type: cell-based; conditions: dose 0.1-1 µM
[6] = biological target: T2, Histone deacetylase (Homo sapiens) (UniProt Q13547+O15379+Q9UBN7+Q92769+Q9UQL6+Q8WUI4+Q9BY41+Q96DB2+P56524+Q9UKV0+Q969S8); experiment: Inhibition of HDAC in human PC-3 cells assessed as H3K9 acetylation at 0.1 to 1 uM incubated for 24 hrs by Western blotting analysis; assay type: cell-based; conditions: dose 0.1-1 µM
[7] = biological target: T1, Lysine-specific histone demethylase 1A; experiment: Inhibition of LSD1 in human PC-3 cells assessed as fold increase in H3K4me2 to H3 ratio at 0.1 uM incubated for 24 hrs by Western blotting analysis (reference value: 1); assay type: cell-based
[8] = biological target: T1, Lysine-specific histone demethylase 1A; experiment: Inhibition of LSD1 in human PC-3 cells assessed as fold increase in H3K4me2 to H3 ratio at 0.3 uM incubated for 24 hrs by Western blotting analysis (reference value: 1); assay type: cell-based
[9] = biological target: T1, Lysine-specific histone demethylase 1A; experiment: Inhibition of LSD1 in human PC-3 cells assessed as fold increase in H3K4me2 to H3 ratio at 1 uM incubated for 24 hrs by Western blotting analysis (reference value: 1); assay type: cell-based
[10] = biological target: T2, Histone deacetylase (Homo sapiens); experiment: Inhibition of HDAC in human PC-3 cells assessed as fold increase in acetylated H3K9 to H3 ratio at 0.1 uM incubated for 24 hrs by Western blotting analysis (reference value: […]); assay type: cell-based
[11] = biological target: T2, Histone deacetylase (Homo sapiens); experiment: Inhibition of HDAC in human PC-3 cells assessed as fold increase in acetylated H3K9 to H3 ratio at 0.3 uM incubated for 24 hrs by Western blotting analysis (reference value: 1); assay type: cell-based
[12] = biological target: T2, Histone deacetylase (Homo sapiens); experiment: Inhibition of HDAC in human PC-3 cells assessed as fold increase in acetylated H3K9 to H3 ratio at 1 uM incubated for 24 hrs by Western blotting analysis (reference value: […]); assay type: cell-based

SMILES | GI50 (HL-60) [nM] | GI50 (PC-3) [nM] | GI50 (LN-18) [nM] | GI50 at 72 h (in vitro) [nM] | Drug metabolism [1] | IC50 [2] [nM] | Ratio IC50 [3] | Drug metabolism [4] | inhibition [5] | inhibition [6] | fold change (FC) [7] | fold change (FC) [8] | fold change (FC) [9] | fold change (FC) [10] | fold change (FC) [11] | fold change (FC) [12]
Nc1ccccc1NC(=O)c1ccc(CNC(=O)OCc2cccnc2)cc1 [ENTINOSTAT] | 214 | 87 | 917 | 2230 |  |  |  |  |  |  |  |  |  |  |  | 
CN(CCN(C)C1CC1c1ccccc1)C(=O)Nc1ccccc1NC(=O)c1ccc(CNC(=O)OCc2cccnc2)cc1 (stereo unspecified) |  |  |  |  | Metabolite_Notdetected | 50300 |  |  |  |  |  |  |  |  |  | 
CN(CCN(C)C1CC1c1ccccc1)C(=O)Oc1ccc(COC(=O)Nc2ccccc2NC(=O)c2ccc(CNC(=O)OCc3cccnc3)cc2)cc1 (stereo unspecified) | 4490 | 1180 | 5620 | > 100000 |  | 626 | 40 | Metabolite_Detected | Dose-Dependent Effect | Active | 1.18 | 1.49 | 1.58 | 1.48 | 1.77 | 2.01

Source: ChEMBL document CHEMBL5523698, “Design, synthesis, and biological evaluation of phenylcyclopropylamine-entinostat conjugates that selectively target cancer cells” (Bioorg Med Chem, 2024)
